Results as given in ChEMBL document CHEMBL1201862, “PubChem BioAssay data set” (2004).
Counter-ions that a name gives are not always drawn. Active and inactive are the calls of the source.

How the values were obtained:
[1] = target: E3 ubiquitin-protein ligase Mdm2 (Homo sapiens, UniProt Q00987); experiment: enhancers of MDM2-luciferase reporter signal, concentration-effect titration, project on inhibitors of MDM2 ubiquitin ligase, cellular assay, luminescent readout, 384-well plate format (AID 1394); type: functional;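 further: MDM2 E3 inhibitors raise luminescence so EC50 is for signal enhancement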
[2] = system: Vero; experiment: West Nile virus antiviral activity, cell-based, CPE readout (AID 1621); type: functional; conditions: Chlorocebus sabaeus
[3] = Luminescence Cell-Based Dose Confirmation to Identify Activators of 5'UTR Stem-Loop Driven Alpha-Synuclein mRNA Translation in H4 Neuroglioblastoma Cells. [Related pubchem assays: 1829 (Project Summary), 1814 (Primary HTS)]; type: functional
[4] = Luminescence Cell-Based Dose Response to Identify Activators of 5'UTR Stem-Loop Driven Prion Protein mRNA Translation in H4-C Neuroglioblastoma Cells. [Related pubchem assays: 1829 (Project Summary), 1814 (Primary HTS)]; type: functional
[5] = system: H4; experiment: Luminescence Cell-Based Dose Response HTS to Identify Activators of 5'UTR Stem-Loop Driven Prion Protein mRNA Translation in H4 Neuroglioblastoma Cells. [Related pubchem assays: 1829 (Project Summary), 1814 (Primary HTS)]; type: functional; conditions: Homo sapiens
[6] = target: Potassium voltage-gated channel subfamily KQT member 2 (Rattus norvegicus, UniProt O88943, W236L); experiment: KCNQ2 channel potentiators, dose response, mechanism study for KCNQ2 potentiator project, cell-based, automated electrophysiology (AID 2603); type: functional
[7] = Luminescence Cell-Based Dose Response HTS to Identify Activators of Luciferase Translation or Activity in H4 […] Cells. [Related pubchem assays: 1829 (Project Summary), 1814 (Primary HTS)]; type: functional
[8] = Luminescence Cell-Based Dose Response to Identify Activators of Luciferase Translation or Activity in H4-C Neuroglioblastoma Cells. [Related pubchem assays: 1829 (Project Summary), 1814 (Primary HTS)]; type: functional
[9] = P. falciparum Dd2 growth inhibitors, dose response, SYBR Green, dry powder samples, set 9 (AID 1159568); type: functional, cell-based
[10] = target: Metabotropic glutamate receptor 7 (Homo sapiens, UniProt Q14831); experiment: mGlu7 positive allosteric modulators, dose response, cell-based, calcium mobilization, Galpha15 (AID 743384); type: functional
[11] = Plasmodium falciparum Dd2 Sybr green parasite growth Measured in Cell-Based and Microorganism Combination System Using Plate Reader - 2153-01_Inhibitor_Dose_DryPowder_Activity_Set10.; type: functional
[12] = HeLa 2N DNA content increase, dose response, cell-based, IC50 (AID 1117349); type: functional
[13] = Dose-response inhibition of insulin secretion in a rat insulinoma line at 5 mM glucose (AID 1117331); type: functional, cell-based; conditions: INS-1E
[14] = HeLa 4N DNA content increase, dose response, cell-based, IC50 (AID 1117351); type: functional
[15] = cells; type: functional, cell-based; conditions: INS-1E
[16] = human group III sPLA2 inhibitors, dose response, biochemical, QFRET, IC50 (AID 743457);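 further: green fluorescence rise as the enzyme cleaves BODIPY PC-A2 in liposomes; potency for inhibition of the enzyme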
[17] = system: SN12K1; experiment: cells; type: functional; conditions: Homo sapiens
[18] = HepG2 cell cytotoxicity, dose response, cytotoxicity control for Shn3 inhibitor project, CellTiter-Glo, cherry-picked (AID 624134); type: functional, cell-based
[19] = target: T1, Rac GTPase-activating protein 1 (Homo sapiens, UniProt Q9H0H5); experiment: MgcRacGAP GTPase-activating activity inhibitors, confirmation, biochemical, ADP Hunter fluorescence, primary and confirmatory (AID 624330); type: functional
T1 sequence (Q9H0H5 whole entry): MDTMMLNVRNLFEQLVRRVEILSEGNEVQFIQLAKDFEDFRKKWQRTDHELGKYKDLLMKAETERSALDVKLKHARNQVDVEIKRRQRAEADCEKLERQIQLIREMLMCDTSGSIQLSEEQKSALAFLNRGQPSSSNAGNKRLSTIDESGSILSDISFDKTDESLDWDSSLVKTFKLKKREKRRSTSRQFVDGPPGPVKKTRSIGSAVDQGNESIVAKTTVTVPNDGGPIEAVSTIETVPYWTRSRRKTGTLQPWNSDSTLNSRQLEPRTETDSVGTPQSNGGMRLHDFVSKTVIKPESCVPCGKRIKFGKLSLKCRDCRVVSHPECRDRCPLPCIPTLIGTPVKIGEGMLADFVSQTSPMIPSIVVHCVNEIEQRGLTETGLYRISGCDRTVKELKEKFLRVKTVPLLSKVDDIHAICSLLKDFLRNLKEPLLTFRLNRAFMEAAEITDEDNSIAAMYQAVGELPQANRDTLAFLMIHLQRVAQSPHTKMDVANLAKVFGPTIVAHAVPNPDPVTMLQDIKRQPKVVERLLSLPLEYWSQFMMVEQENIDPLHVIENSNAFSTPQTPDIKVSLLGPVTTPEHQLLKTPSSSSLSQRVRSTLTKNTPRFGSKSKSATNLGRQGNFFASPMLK

[20] = cytotoxicity toward HCT116 cells – cell-based, CellTiter-Glo luminescence, IC50, dose response (AID 1117332); type: functional; conditions: HCT-116
[21] = control 3'UTR Renilla luciferase suppression, dose response, counter-screen for Shn3 inhibitor project, cell-based, Clone20-Shn3RL, cherry-picked (AID 624133); type: functional
[22] = target: Nonstructural protein 1 (Influenza A virus, UniProt Q194T2); type: functional, Influenza A virus (A/California/07/2009(H1N1))
[23] = THP-1 cell cytotoxicity, dose response, cytotoxicity control for Vif-APOBEC3G degradation inhibitor project, THP-1 cells (AID 1117359); type: functional; conditions: Human immunodeficiency virus 1, THP-1
[24] = system: P388; experiment: cells; type: functional; conditions: Mus musculus
[25] = system: P388/ADR; experiment: cells; type: functional; conditions: Mus musculus
[26] = HCT116 cell viability decrease, GSK3B pretreatment – CellTiter-Glo, IC50, dose response (AID 1117339); type: functional; conditions: HCT-116
[27] = target: T2, DNA repair protein RAD52 homolog (Homo sapiens, UniProt P43351); type: functional, biochemical
T2 sequence (P43351 whole entry): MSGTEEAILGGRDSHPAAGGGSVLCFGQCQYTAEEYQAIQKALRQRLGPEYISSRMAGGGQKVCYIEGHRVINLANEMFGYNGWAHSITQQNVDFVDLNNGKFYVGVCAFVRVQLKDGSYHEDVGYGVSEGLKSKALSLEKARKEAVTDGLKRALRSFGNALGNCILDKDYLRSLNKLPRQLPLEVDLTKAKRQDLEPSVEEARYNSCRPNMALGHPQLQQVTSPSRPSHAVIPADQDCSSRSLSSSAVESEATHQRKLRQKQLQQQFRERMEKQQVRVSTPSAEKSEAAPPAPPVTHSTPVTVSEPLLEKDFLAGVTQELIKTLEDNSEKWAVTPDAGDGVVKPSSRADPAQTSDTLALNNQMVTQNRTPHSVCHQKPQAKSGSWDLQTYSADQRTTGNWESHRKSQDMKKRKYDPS

[28] = target: Glutathione-S-transferase (Schistosoma japonicum, UniProt Q26513); experiment: biotin-GST/anti-GST TR-FRET signal inhibitors, dose response, artefact control for Vif-APOBEC3G degradation inhibitor project, biochemical (AID 1117362); type: functional
[29] = target: Paired box protein Pax-8 (Homo sapiens, UniProt Q06710); experiment: inhibitors of PAX8-driven TPO luciferase reporter, dose response, RMG-I cells, cherry-pick (AID 687027); type: functional, cell-based;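 further: luciferase reporter driven by Pax8 target thyroperoxidase promoter measured by SteadyGlo luminescence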
[30] = cytotoxicity in HEK-293T cells, dose response, cytotoxicity control for TCR NF-kB inhibitor project, luminescence, T-cell screen hits (AID 489026); type: functional, cell-based;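 further: cells exposed to compound about 14 hours before the viability readout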
[31] = Concentration-dependent survival of SW480 colon cancer line, luminescence detection with CellTiter-Glo, half-maximal inhibitory concentration (AID 1117338); type: functional
[32] = Shn3 3'UTR reporter inhibitors, dose response, cell-based, Clone20 osteoblasts, firefly luciferase, cherry-picked (AID 624132); type: functional;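 further: firefly luciferase luminescence from reporter carrying the Shn3 3'UTR in osteoblasts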
[33] = target: Dual specificity tyrosine-phosphorylation-regulated kinase 1A (Rattus norvegicus, UniProt Q63470); type: biochemical, Homo sapiens
[34] = CellTiter-Glo luminescent dose response of DLD-1 viability loss (AID 1117352); type: functional
[35] = SNU-C1 cell viability reduction, dose response, CellTiter-Glo luminescence (AID 1117323); type: functional, cell-based
[36] = RKO cell viability reduction, dose response, CellTiter-Glo luminescence (AID 1117322); type: functional

Potassium voltage-gated channel subfamily KQT member 2, sequence (O88943 whole entry W236L): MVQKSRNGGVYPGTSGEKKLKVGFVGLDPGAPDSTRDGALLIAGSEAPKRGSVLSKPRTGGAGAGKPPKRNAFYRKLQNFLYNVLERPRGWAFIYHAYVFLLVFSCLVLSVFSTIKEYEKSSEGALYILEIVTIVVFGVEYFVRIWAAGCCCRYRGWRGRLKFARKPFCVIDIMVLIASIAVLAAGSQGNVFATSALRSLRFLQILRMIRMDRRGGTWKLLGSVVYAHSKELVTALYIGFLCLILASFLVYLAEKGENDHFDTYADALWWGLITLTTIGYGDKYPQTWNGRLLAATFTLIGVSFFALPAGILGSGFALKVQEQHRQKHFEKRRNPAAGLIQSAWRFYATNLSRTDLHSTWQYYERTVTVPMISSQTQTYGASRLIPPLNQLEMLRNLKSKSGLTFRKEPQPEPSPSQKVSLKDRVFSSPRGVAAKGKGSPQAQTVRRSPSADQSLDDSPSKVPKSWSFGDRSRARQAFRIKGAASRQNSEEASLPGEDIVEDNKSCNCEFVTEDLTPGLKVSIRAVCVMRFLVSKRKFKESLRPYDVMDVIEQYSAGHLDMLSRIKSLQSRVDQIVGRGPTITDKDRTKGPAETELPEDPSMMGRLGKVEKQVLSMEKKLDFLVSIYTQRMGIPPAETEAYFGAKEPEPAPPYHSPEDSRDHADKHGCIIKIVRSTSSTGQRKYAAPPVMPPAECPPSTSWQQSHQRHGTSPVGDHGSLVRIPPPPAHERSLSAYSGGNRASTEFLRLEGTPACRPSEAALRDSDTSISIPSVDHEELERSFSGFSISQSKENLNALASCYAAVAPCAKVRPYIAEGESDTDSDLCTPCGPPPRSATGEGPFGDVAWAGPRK
Metabotropic glutamate receptor 7, sequence (Q14831 whole entry): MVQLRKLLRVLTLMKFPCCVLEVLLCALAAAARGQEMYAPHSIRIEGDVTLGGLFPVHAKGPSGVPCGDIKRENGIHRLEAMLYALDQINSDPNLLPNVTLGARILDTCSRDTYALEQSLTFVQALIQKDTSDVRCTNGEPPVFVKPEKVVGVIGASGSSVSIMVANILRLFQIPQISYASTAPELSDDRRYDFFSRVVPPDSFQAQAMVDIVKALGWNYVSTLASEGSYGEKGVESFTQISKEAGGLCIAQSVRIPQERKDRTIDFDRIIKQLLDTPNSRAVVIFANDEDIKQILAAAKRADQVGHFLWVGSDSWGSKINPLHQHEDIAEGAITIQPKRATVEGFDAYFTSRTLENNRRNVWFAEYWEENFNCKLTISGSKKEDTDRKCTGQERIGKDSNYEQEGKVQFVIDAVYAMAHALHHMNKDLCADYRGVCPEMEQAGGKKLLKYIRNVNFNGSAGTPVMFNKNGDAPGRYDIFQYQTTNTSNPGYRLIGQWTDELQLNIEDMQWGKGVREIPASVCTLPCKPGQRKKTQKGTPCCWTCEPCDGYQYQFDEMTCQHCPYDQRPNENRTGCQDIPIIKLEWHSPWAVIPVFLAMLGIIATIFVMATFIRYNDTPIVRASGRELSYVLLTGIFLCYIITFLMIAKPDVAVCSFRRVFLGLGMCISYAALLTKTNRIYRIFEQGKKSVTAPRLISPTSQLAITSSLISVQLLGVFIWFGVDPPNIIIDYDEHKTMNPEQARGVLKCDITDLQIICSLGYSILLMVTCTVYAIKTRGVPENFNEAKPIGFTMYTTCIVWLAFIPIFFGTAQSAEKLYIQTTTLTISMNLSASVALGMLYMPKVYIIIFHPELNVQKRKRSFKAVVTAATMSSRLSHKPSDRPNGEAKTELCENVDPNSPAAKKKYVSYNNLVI
Nonstructural protein 1, sequence (Q194T2 whole entry): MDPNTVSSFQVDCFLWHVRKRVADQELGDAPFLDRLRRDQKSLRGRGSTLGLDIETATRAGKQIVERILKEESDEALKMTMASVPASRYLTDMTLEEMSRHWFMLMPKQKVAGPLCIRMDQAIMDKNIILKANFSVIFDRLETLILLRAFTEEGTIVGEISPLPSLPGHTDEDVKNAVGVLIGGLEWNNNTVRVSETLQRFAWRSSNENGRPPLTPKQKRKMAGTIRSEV
E3 ubiquitin-protein ligase Mdm2, sequence (Q00987 whole entry): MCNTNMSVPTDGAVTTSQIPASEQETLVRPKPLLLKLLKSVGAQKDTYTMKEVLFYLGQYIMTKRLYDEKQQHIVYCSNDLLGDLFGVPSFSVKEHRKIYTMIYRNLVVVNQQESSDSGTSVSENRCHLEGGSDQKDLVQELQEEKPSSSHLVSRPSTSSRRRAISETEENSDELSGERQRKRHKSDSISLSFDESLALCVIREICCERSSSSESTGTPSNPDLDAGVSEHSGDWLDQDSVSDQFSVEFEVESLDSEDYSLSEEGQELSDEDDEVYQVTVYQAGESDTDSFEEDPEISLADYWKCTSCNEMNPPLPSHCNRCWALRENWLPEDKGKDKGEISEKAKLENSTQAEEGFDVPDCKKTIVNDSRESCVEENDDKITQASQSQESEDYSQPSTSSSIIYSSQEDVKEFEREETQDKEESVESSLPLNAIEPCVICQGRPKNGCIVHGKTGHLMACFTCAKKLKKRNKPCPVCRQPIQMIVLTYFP
Glutathione-S-transferase, sequence (Q26513 whole entry): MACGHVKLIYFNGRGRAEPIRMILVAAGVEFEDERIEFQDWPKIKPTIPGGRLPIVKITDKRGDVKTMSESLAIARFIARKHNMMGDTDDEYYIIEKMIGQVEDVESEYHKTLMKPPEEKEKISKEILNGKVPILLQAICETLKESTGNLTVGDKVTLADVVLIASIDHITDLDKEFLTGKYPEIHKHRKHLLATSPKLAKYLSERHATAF
Paired box protein Pax-8, sequence (Q06710 whole entry): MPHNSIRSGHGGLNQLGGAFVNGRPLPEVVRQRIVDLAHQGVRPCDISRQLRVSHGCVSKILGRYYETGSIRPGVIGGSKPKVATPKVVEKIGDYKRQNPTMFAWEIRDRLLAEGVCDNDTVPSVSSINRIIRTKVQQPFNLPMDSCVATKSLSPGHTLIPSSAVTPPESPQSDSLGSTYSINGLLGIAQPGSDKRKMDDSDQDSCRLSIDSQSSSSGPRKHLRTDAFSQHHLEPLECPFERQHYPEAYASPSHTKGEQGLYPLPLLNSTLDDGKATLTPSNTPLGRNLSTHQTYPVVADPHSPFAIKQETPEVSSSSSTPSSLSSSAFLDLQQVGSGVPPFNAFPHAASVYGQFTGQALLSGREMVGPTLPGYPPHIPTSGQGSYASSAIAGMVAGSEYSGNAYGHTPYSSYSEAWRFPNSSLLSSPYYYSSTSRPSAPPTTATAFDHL

O=C(CSc1nnc(-c2cccnc2)n1C1CCCCC1)NC1CCCCC1
EC50 [1]: 40 nM (not active)

Cc1ccc2nc(O)c(CN(CCCN(C)C)C(=O)Nc3ccc(Cl)cc3)cc2c1
IC50 [2]: 17800 nM (active)

Cc1ccc(NC(=O)NCC2CC2(Cl)Cl)cc1 (stereo not drawn)
EC50 [3]: 1720 nM (active) | EC50 [4]: > 12000 nM (not active) | EC50 [5]: 8760 nM (active) | EC50 [6]: 2170 nM (active) | EC50 [7]: 226 nM (active) | EC50 [8]: 399 nM (active)

CC(C)NC(=O)NCC[C@@H]1CC[C@H](NS(=O)(=O)c2ccc(Oc3ccccc3)cc2)[C@@H](CO)O1
AC50 [9]: 32100 nM (active)

COc1ccc(SCC(=O)c2cc(C)n(-c3ccc(OC(F)F)cc3)c2C)cc1
EC50 [10]: 3160 nM (active)

COc1ccc(-c2ccccc2[C@@H]2[C@H](C#N)N(C(=O)C3CCCC3)[C@H]2CO)cc1
AC50 [11]: 19100 nM (active)

Cc1ccc(S(=O)(=O)NC(=O)NN2CC3CCCC3C2)cc1 (stereo not drawn) [GLICLAZIDE]
IC50 [12]: > 10000 nM (inactive) | IC50 [13]: 1830 nM (active) | IC50 [14]: > 10000 nM (inactive) | IC50 [15]: > 33300 nM (inactive)

O=C1c2c(O)ccc(O)c2C(=O)c2c(NCCNCCO)ccc(NCCNCCO)c21 [MITOXANTRONE HYDROCHLORIDE]
IC50 [16]: > 122000 nM (inactive) | GI50 [17]: 5.3 nM (active) | AC50 [18]: 535 nM (active) | IC50 [19]: 14800 nM (active) | IC50 [20]: 1230 nM (active) | AC50 [21]: 33600 nM (active) | IC50 [12]: > 10000 nM (inactive) | IC50 [22]: 1100 nM (active) | CC50 [23]: < 80 nM (active) | GI50 [24]: 3.55 nM (active) | GI50 [25]: 22.2 nM (active) | IC50 [26]: 1 nM (active) | AC50 [27]: < 150 nM (active) | IC50 [28]: 3850 nM (active) | AC50 [29]: 690 nM (active) | IC50 [30]: 37900 nM (inactive) | IC50 [14]: > 10000 nM (inactive) | IC50 [31]: 1830 nM (active) | AC50 [32]: 658 nM (active) | AC50 [33]: 9510 nM (active) | IC50 [34]: 1600 nM (active) | IC50 [35]: 1720 nM (active) | IC50 [36]: 1030 nM (active)
